# Molecular target: T1, human LPA1 receptor (Homo sapiens, UniProt Q92633)
# T1 construct: TEV protease site; Gal4-VP16 transcription factor; host or cells: Tango EDG2-bla U2OS cells
# Experiment: Beta-arrestin recruitment assay to determine IC50 values for human LPAR1
# Type: cell-based
# Settings: Tango EDG2-bla U2OS cells, antagonist assay, LPA 18:1 500 nM final
# Description: Beta-Arrestin Recruitment Assay to Determine IC50 Values for Human LPAR1
# The Tango™ EDG2-bla U2OS cells are obtained from Invitrogen. These cells contain the human LPA1 receptor cDNA linked to a TEV protease site and a Gal4-VP16 transcription factor integrated into the Tango™ GPCR-bla U2OS parental cell line. This parental cell line stably expresses a beta-arrestin/TEV protease fusion protein and the beta-lactamase (bla) reporter gene under the control of a UAS response element. Upon LPA (agonist) binding, LPA1 receptor gets activated, leading to arrestin-protease recruitment and proteolytic release of the transcription factor: The transcription factor then regulates transcription of a beta-lactamase reporter construct, which is measured upon addition of the live-cell substrate.
# 10′000 Tango™ EDG2-bla U2OS cells are seeded in a 384-well black with clear bottom plate in 30 μl Freestyle 293 Expression Medium (Invitrogen) and incubated for 20 h at 37° C., 5% CO2. For antagonist assays, 5 μl of test compound (dilution series in DMSO/Freestyle 293 Expression medium/0.1% fatty acid free BSA (Sigma)) or buffer control are added per well and incubated for 30 min at 37° C., 5% CO2. 5 μl of LPA 18:1 (500 nM final) (solution in Freestyle 293 Expression medium/0.1% fatty acid free BSA (Sigma)) are added per well and the plate incubated for 16 h at 37° C., 5% CO2. Cells are then loaded with LiveBLAzer-FRET™ B/G Substrate (Invitrogen) for 2 h in the dark and the fluorescence emission at 460 nm and 530 nm is measured using the SynergyMx reader (BioTek). Following the background subtraction from both channels, the 460/530 nm emission ratio for each well is calculated, then plotted and fitted to a 4-parameter logistic function to obtain IC50 values. IC50 is the concentration of antagonist inhibiting 50% of the maximal response.
# T1 sequence (Q92633 whole entry, the tested form may be a part): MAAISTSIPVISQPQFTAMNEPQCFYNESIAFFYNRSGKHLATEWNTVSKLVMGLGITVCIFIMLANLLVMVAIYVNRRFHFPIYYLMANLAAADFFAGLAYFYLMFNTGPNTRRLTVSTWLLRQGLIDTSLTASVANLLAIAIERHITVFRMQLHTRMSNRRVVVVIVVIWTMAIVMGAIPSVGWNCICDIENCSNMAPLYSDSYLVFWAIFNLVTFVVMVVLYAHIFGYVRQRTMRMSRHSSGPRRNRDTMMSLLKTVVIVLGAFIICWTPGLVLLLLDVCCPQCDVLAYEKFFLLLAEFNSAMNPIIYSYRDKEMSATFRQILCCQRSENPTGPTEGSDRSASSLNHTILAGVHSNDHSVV
row,IC50 [nM],Compound
1,111,"COC(=O)C(C)(C)CCN1CC(C(=O)Nc2cnc(Cl)cc2OC)(c2ccccc2C(C)C)C1 [Example 18-16, methyl 4-(3-((6-chloro-4-methoxypyridin-3-yl)carbamoyl)-3-(2-isopropylphenyl)azetidin-1-yl)-2,2-dimethylbutanoate]"
2,35,"COc1cc(Cl)ncc1NC(=O)C1(c2ccccc2C(C)C)CN(CC(C)C)C1 [Example 18-2, N-(6-chloro-4-methoxypyridin-3-yl)-1-isobutyl-3-(2-isopropylphenyl)azetidine-3-carboxamide]"
3,7,"COc1cc(Cl)ncc1NC(=O)C1(c2ccccc2C(C)C)CN(c2ccnc(C)n2)C1 [Example 24-12, N-(6-chloro-4-methoxypyridin-3-yl)-3-(2-isopropylphenyl)-1-(2-methylpyrimidin-4-yl)azetidine-3-carboxamide]"
4,79,"COc1cc(Cl)ncc1NC(=O)C1(c2ccccc2C(C)C)CCN(CCC(C)(C)C(=O)O)CC1 [Example 18-22, 4-(4-((6-chloro-4-methoxypyridin-3-yl)carbamoyl)-4-(2-isopropylphenyl)piperidin-1-yl)-2,2-dimethylbutanoic acid]"
5,3,"COc1cc(Cl)ncc1NC(=O)C1(c2ccccc2C(C)C)CCN(c2ncncc2F)CC1 [Example 24-17, N-(6-chloro-4-methoxypyridin-3-yl)-1-(5-fluoropyrimidin-4-yl)-4-(2-isopropylphenyl)piperidine-4-carboxamide]"
6,12,"COc1cc(Cl)ncc1NC(=O)C1(c2ccccc2C(C)C)CN(C2=NC(=O)CO2)C1 [Example 26, N-(6-chloro-4-methoxypyridin-3-yl)-3-(2-isopropylphenyl)-1-(4-oxo-4,5-dihydrooxazol-2-yl)azetidine-3-carboxamide]"
7,1,"COc1cc(Cl)ncc1NC(=O)C1(c2ccccc2C(C)C)CN(c2ncc(C#N)cn2)C1 [Example 24-8, N-(6-chloro-4-methoxypyridin-3-yl)-1-(5-cyanopyrimidin-2-yl)-3-(2-isopropylphenyl)azetidine-3-carboxamide]"
8,3,"CC(C)Oc1cc(Cl)ncc1NC(=O)C1(c2ccccc2C(C)C)CNC1 [Example 6, N-(6-chloro-4-isopropoxypyridin-3-yl)-3-(2-isopropylphenyl)azetidine-3-carboxamide]"
9,16,"CC(C)Oc1cc(Cl)ncc1NC(=O)C1(c2ccccc2C(C)C)CN(CCC(C)(C)C(=O)O)C1 [Example 18-20, 4-(3-((6-chloro-4-isopropoxypyridin-3-yl)carbamoyl)-3-(2-isopropylphenyl)azetidin-1-yl)-2,2-dimethylbutanoic acid]"
10,127,"COc1cc(Cl)ncc1NC(=O)C1(c2ccccc2C(C)C)CN(C(=O)CCO)C1 [Example 19-1, N-(6-chloro-4-methoxypyridin-3-yl)-1-(3-hydroxypropanoyl)-3-(2-isopropylphenyl)azetidine-3-carboxamide]"
11,472,"COc1cc(Cl)ncc1NC(=O)C1(c2ccccc2C(C)C)CN(S(=O)(=O)CCN(C)C)C1 [Example 20-4, N-(6-chloro-4-methoxypyridin-3-yl)-1-((2-(dimethylamino)ethyl)sulfonyl)-3-(2-isopropylphenyl)azetidine-3-carboxamide]"
12,3150,"COc1cc(Cl)ncc1NC(=O)C1(c2ccccc2C(C)C)CN(c2ncc(C(=O)O)cn2)C1 [Example 24-23, 2-(3-((6-chloro-4-methoxypyridin-3-yl)carbamoyl)-3-(2-isopropylphenyl)azetidin-1-yl)pyrimidine-5-carboxylic acid]"
13,8,"COc1cc(Cl)ncc1NC(=O)C1(c2ccccc2C(C)C)CN(c2ncc(F)cn2)C1 [Example 24-9, N-(6-chloro-4-methoxypyridin-3-yl)-1-(5-fluoropyrimidin-2-yl)-3-(2-isopropylphenyl)azetidine-3-carboxamide]"
14,56,"COc1cc(Br)ncc1NC(=O)C1(c2ccccc2C(C)C)CN(CCC(C)(C)C(=O)O)C1 [Example 18-23, 4-(3-((6-bromo-4-methoxypyridin-3-yl)carbamoyl)-3-(2-isopropylphenyl)azetidin-1-yl)-2,2-dimethylbutanoic acid]"
15,29,"COc1cc(Cl)ncc1NC(=O)C1(c2ccccc2C(C)C)CN(c2cc(Cl)nc(C)n2)C1 [Example 24-15, 1-(6-chloro-2-methylpyrimidin-4-yl)-N-(6-chloro-4-methoxypyridin-3-yl)-3-(2-isopropylphenyl)azetidine-3-carboxamide]"
16,107,"COc1cc(Cl)ncc1NC(=O)C1(c2ccccc2C(C)C)CN(C(=O)Cn2ccnn2)C1 [Example 19-11, 1-(2-(1H-1,2,3-triazol-1-yl)acetyl)-N-(6-chloro-4-methoxypyridin-3-yl)-3-(2-isopropylphenyl)azetidine-3-carboxamide]"

row,IC50 [nM],Compound
1,3,"COc1cc(Cl)ncc1NC(=O)C1(c2ccccc2C(C)C)CN(c2ccnc(C)c2)C1 [Example 24-5, N-(6-chloro-4-methoxypyridin-3-yl)-3-(2-isopropylphenyl)-1-(2-methylpyridin-4-yl)azetidine-3-carboxamide]"
2,18,"COc1cc(Cl)ncc1NC(=O)C1(c2ncccc2C(C)C)CN(C(=O)NC2CC2)C1 [Example 22-7, N3-(6-chloro-4-methoxypyridin-3-yl)-N1-cyclopropyl-3-(3-isopropylpyridin-2-yl)azetidine-1,3-dicarboxamide]"
3,5,"COc1cc(Cl)ncc1NC(=O)C1(c2ccccc2C(C)C)CN(c2ccncn2)C1 [Example 24-11, N-(6-chloro-4-methoxypyridin-3-yl)-3-(2-isopropylphenyl)-1-(pyrimidin-4-yl)azetidine-3-carboxamide]"
4,22,"COc1cc(Cl)ncc1NC(=O)C1(c2ccccc2C(C)C)CN(C(N)=O)C1 [Example 22-1, N3-(6-chloro-4-methoxypyridin-3-yl)-3-(2-isopropylphenyl)azetidine-1,3-dicarboxamide]"
5,2,"CCOc1cc(Cl)ncc1NC(=O)C1(c2ccccc2C(C)C)CN(S(N)(=O)=O)C1 [Example 21-3, N-(6-chloro-4-ethoxypyridin-3-yl)-3-(2-isopropylphenyl)-1-sulfamoylazetidine-3-carboxamide]"
6,12,"CCOc1cc(Cl)ncc1NC(=O)C1(c2ccccc2C(C)C)CN(C(=O)CC(C)(C)C(=O)O)C1 [Example 19-22, 4-(3-((6-chloro-4-ethoxypyridin-3-yl)carbamoyl)-3-(2-isopropylphenyl)azetidin-1-yl)-2,2-dimethyl-4-oxobutanoic acid]"
7,61,"COc1cc(Cl)ncc1NC(=O)C1(c2ccccc2C(C)C)CN(Cc2c[nH]nn2)C1 [Example 18-15, 1-((1H-1,2,3-triazol-4-yl)methyl)-N-(6-chloro-4-methoxypyridin-3-yl)-3-(2-isopropylphenyl)azetidine-3-carboxamide]"
8,76,"COc1cc(Cl)ncc1NC(=O)C1(c2ccccc2C(C)C)CN(CC2(F)CC2)C1 [Example 18-10, N-(6-chloro-4-methoxypyridin-3-yl)-1-((1-fluorocyclopropyl)methyl)-3-(2-isopropylphenyl)azetidine-3-carboxamide]"
9,2,"COc1cc(Br)ncc1NC(=O)C1(c2ccccc2C(C)C)CN(S(N)(=O)=O)C1 [Example 21-9, N-(6-bromo-4-methoxypyridin-3-yl)-3-(2-isopropylphenyl)-1-sulfamoylazetidine-3-carboxamide]"
10,55,"COc1cc(Cl)ncc1NC(=O)C1(c2ccccc2C(C)C)CN(c2c(O)c(=O)c2=O)C1 [Example 27, N-(6-chloro-4-methoxypyridin-3-yl)-1-(2-hydroxy-3,4-dioxocyclobut-1-en-1-yl)-3-(2-isopropylphenyl)azetidine-3-carboxamide]"
11,44,"COc1cc(Cl)ncc1NC(=O)C1(c2ccccc2C(C)C)CN(CCN)C1 [Example 18-7, 1-(2-aminoethyl)-N-(6-chloro-4-methoxypyridin-3-yl)-3-(2-isopropylphenyl)azetidine-3-carboxamide]"
12,419,"COc1cc(Cl)ncc1NC(=O)C1(c2nc(F)ccc2C(C)C)CNC1 [Example 16, N-(6-chloro-4-methoxypyridin-3-yl)-3-(6-fluoro-3-isopropylpyridin-2-yl)azetidine-3-carboxamide]"
13,74,"COc1cc(Cl)ncc1NC(=O)C1(c2ccccc2C(C)C)CN(C(=O)N(C)C)C1 [Example 22-15, N^3-(6-chloro-4-methoxypyridin-3-yl)-3-(2-isopropylphenyl)-N1,N1-dimethylazetidine-1,3-dicarboxamide]"
14,48,"COc1cc(F)ncc1NC(=O)C1(c2ccccc2C(C)C)CNC1 [Example 1, N-(6-fluoro-4-methoxypyridin-3-yl)-3-(2-isopropylphenyl)azetidine-3-carboxamide]"
15,17,"COc1cc(Cl)ncc1NC(=O)C1(c2ccccc2C(C)C)CN(CCNS(N)(=O)=O)C1 [Example 18-28, N-(6-chloro-4-methoxypyridin-3-yl)-3-(2-isopropylphenyl)-1-(2-(sulfamoylamino)ethyl)azetidine-3-carboxamide]"

# Reference: patent publication US12479820B2, “Pyridin-3-yl derivatives” (Idorsia Pharmaceuticals Ltd, priority 2019, dated 2025)
